Values after ≈ are worked out from the molar mass of the structure shown.
Assays:
[1] = system: Lactobacillus plantarum CHCC14158; experiment: D-cycloserine resistance assay (OD600 growth in GJ-5 medium); assay type: cell-based; settings: Lactiplantibacillus plantarum, strain CHCC14158, 24 hours growth at 18° C., vs 0 μg/ml D-cycloserine, read-out: amount of D-cycloserine that reduces the OD600 measured growth with 50%
Method: (§1) Medium: The medium is the known Grape Juice GJ-5 medium described in column 20, lines 10 to 20 of U.S. Pat. No. 7,112,346 (Chr. Hansen A/S).
(§2) As described in lines 10 to 20 of U.S. Pat. No. 7,112,346—the GJ-5 medium has the following composition: • Grape juice concentrate 70.0 g • Yeast paste 30.0 g • Tween 80 0.5 g • MnSO4H2O 0.1 g • Tap water 900.0 g
(§3) A Lactobacillus plantarum strain of interest is inoculated into 10 ml GJ-5 medium containing one of the following amounts of D-cycloserine: 0 μg/ml, 10 μg/ml, 20 μg/ml, 30 μg/ml, 50 μg/ml, 70 μg/ml, 100 μg/ml, 150 μg/ml or 200 μg/ml of D-cycloserine. The strain is grown 24 hours at 18° C. in the GJ-5 medium with the different concentrations of D-cycloserine.
(§4) After the 24 hours growth is OD600 measured for all samples.

[2] = system: Lactobacillus plantarum CHCC14255; experiment: as above; assay type: cell-based; settings: Lactiplantibacillus plantarum, strain CHCC14255, 24 hours growth at 18° C., vs 0 μg/ml D-cycloserine, read-out: amount of D-cycloserine that reduces the OD600 measured growth with 50%
Method: as §1, §2, §3, §4

[3] = system: Lactobacillus plantarum CHCC14254; experiment: as above; assay type: cell-based; settings: Lactiplantibacillus plantarum, strain CHCC14254, 24 hours growth at 18° C., vs 0 μg/ml D-cycloserine, read-out: amount of D-cycloserine that reduces the OD600 measured growth with 50%
Method: as §1, §2, §3, §4

[4] = system: Lactobacillus plantarum CHCC14158; settings: strain CHCC14158; GJ-5 medium with 11% ethanol, 3 days incubation at 25° C.
Method: (§5) Medium: The medium is the standard GJ-5 medium as used in Example 1 above.
(§6) A Lactobacillus plantarum cell that has an improved resistance towards ethanol as discussed herein—is herein defined as a Lactobacillus plantarum cell that can grow to an OD600 of at least 0.8 after 3 days incubation at 25° C. in the GJ-5 medium with 11% ethanol.

[5] = system: Lactobacillus plantarum CHCC14255; settings: strain CHCC14255; GJ-5 medium with 11% ethanol, 3 days incubation at 25° C.
Method: as §5, §6

[6] = system: Lactobacillus plantarum CHCC14254; settings: strain CHCC14254; GJ-5 medium with 11% ethanol, 3 days incubation at 25° C.
Method: as §5, §6

SMILES: N[C@@H]1CON=C1O [D-cycloserine, D-4-amino-isoxazolidone]
- IC50 [1]: 60 to 65 µg/mL (≈ 588 to 637 µM)
- IC50 [2]: ~100 µg/mL (≈ 979 µM)
- IC50 [3]: ~100 µg/mL (≈ 979 µM)

SMILES: CCO [ethanol]
- OD600 reached by growth in presence of ethanol [4]: around 0.65
- OD600 reached by growth in presence of ethanol [5]: more than 1
- OD600 reached by growth in presence of ethanol [6]: at least 0.8

From US9469831B2, “Lactobacillus plantarum cells with improved resistance to high concentrations of ethanol” (Chr. Hansen A/S, priority 2011, dated 2016)
